In assay [1] the target is T1, Estrogen receptor (Rattus norvegicus) (UniProt P06211).
T1 sequence (whole entry): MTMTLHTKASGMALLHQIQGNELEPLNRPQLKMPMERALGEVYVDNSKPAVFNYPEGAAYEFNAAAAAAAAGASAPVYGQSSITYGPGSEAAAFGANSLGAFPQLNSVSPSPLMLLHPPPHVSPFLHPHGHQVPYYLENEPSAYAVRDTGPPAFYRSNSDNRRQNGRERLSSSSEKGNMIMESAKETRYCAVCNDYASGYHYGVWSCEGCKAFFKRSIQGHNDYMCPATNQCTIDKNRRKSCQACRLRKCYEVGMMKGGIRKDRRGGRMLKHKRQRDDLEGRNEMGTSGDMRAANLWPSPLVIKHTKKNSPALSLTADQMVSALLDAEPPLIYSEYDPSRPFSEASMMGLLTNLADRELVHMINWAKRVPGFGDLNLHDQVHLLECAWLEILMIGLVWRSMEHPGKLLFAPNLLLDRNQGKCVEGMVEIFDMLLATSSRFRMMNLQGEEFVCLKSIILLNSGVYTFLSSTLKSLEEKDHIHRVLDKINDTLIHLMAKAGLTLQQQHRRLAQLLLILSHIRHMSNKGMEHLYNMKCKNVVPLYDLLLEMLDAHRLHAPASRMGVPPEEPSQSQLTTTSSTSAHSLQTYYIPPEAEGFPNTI
The assay is described as follows: Displacement of [3H]estradiol from estrogen receptor in uterine cytosol of estradiol primed rat relative to estradiol. The settings on record: Uterus. For orientation: Loss of bound radioactivity is the signal in a displacement assay; it reports binding, not function.

The test system of assay [2] is Rattus norvegicus. The assay is described as follows: Estrogenic activity in ovariectomised Sprague-Dawley rat assessed as uterine weight gain at 10 mg/kg, po once daily for three days after 24 hrs of last treatment relative to control. Format: functional.
Assay [3] has as its system Rattus norvegicus. In words: Antiestrogenic activity in ovariectomised Sprague-Dawley rat assessed as inhibition of estradiol-induced uterine weight at 10 mg/kg, po once daily for three days measured on day 4 relative to control. Format: functional.
Assay [4] relates to Rattus norvegicus. The assay is described as follows: Antiimplantation activity in Sprague-Dawley rat uterus at 10 mg/kg, po for 7 days measured on day 11. Format: functional.
Assay [5] has as its system Rattus norvegicus. The assay is described as follows: Antiimplantation activity in Sprague-Dawley rat uterus at 5 mg/kg, po for 7 days measured on day 11. Format: functional.

12 compounds from ChEMBL document CHEMBL1158177, “Synthesis and structure guided evaluation of estrogen agonist and antagonist activities of some new tetrazolyl indole derivatives” (2008) can be followed below.

The source made the active and inactive calls. No cut-off for these calls is given here.

The term inhibition in vivo denotes the relative decrease from the control value, in per cent. In turn, `c1ccc2c(c1)OCCc1c-2n(CCc2nnn(CCN3CCCC3)n2)c2ccccc12` displayed an RBA in assay [1] of 0.04%. Moreover, the Activity with Rattus norvegicus [2] was 29%. For the same compound, the inhibition in vivo at 10 mg/kg in the assay with Rattus norvegicus [3] turned out to be 12%. Besides, in the assay with Rattus norvegicus [4], the outcome was inactive.

For `c1ccc2c(c1)CCCc1c-2n(CCc2nnn(CCN3CCCCC3)n2)c2ccccc12`, the RBA in assay [1] came to 0.011%. The result with Rattus norvegicus [4] was inactive.

In turn, `c1ccc2c(c1)CCCc1c-2n(CCc2nnnn2CCN2CCCCC2)c2ccccc12` gave an RBA in assay [1] of less than 0.001%. For the same compound, in the assay with Rattus norvegicus [2], the Activity was 40%. Further, in the assay with Rattus norvegicus [4], the outcome was inactive.

In assay [1], `c1ccc2c(c1)OCCc1c-2n(CCc2nnn(CCN3CCCCC3)n2)c2ccccc12` returned an RBA of 0.011%. The Activity in the assay with Rattus norvegicus [2] is given as 28%. Moreover, the result in the assay with Rattus norvegicus [4] was inactive.

With `c1ccc2c(c1)OCCc1c-2n(CCc2nnnn2CCN2CCCCC2)c2ccccc12`, in assay [1], the RBA is less than 0.001%. In addition, the Activity with Rattus norvegicus [2] is listed as 44%. In addition, the inhibition in vivo at 10 mg/kg in the assay with Rattus norvegicus [3] is 1%. Further, the outcome in the assay with Rattus norvegicus [4] was inactive.

In turn, `c1ccc2c(c1)SCCc1c-2n(CCc2nnn(CCN3CCCCC3)n2)c2ccccc12` yielded an RBA in assay [1] of 0.0125%. For the same compound, the inhibition in vivo at 10 mg/kg in the assay on Rattus norvegicus [3] is 6%. In the assay with Rattus norvegicus [4], the outcome was inactive.

On to `c1ccc2c(c1)OCCc1c-2n(CCc2nnnn2CCN2CCCC2)c2ccccc12`, for which the RBA in assay [1] is less than 0.001%. Further, in the assay on Rattus norvegicus [2], the Activity is listed as 40%. The outcome in the assay on Rattus norvegicus [4] was inactive.

In turn, `c1ccc2c(c1)SCCc1c-2n(CCc2nnn(CCN3CCCC3)n2)c2ccccc12` had an RBA in assay [1] of less than 0.001%. For the same compound, in the assay with Rattus norvegicus [2], the Activity was found to be 25%. The inhibition in vivo at 10 mg/kg in the assay with Rattus norvegicus [3] came out at 1%. The outcome in the assay with Rattus norvegicus [4] was inactive.

`c1ccc2c(c1)SCCc1c-2n(CCc2nnnn2CCN2CCCCC2)c2ccccc12` came in with an RBA in assay [1] of less than 0.001%. For the same compound, the Activity in the assay on Rattus norvegicus [2] was 23%. In addition, the inhibition in vivo at 10 mg/kg in the assay on Rattus norvegicus [3] is 2%. The result in the assay on Rattus norvegicus [4] was inactive.

Take `c1ccc2c(c1)CCCc1c-2n(CCc2nnn(CCN3CCCC3)n2)c2ccccc12`: the Activity was 67% in the assay with Rattus norvegicus [5], 33% in the assay with Rattus norvegicus [2] and 100% in the assay with Rattus norvegicus [4]. Besides, the RBA in assay [1] turned out to be 0.16%. In addition, the inhibition in vivo at 10 mg/kg in the assay with Rattus norvegicus [3] was determined as 3%.

`c1ccc2c(c1)CCCc1c-2n(CCc2nnnn2CCN2CCCC2)c2ccccc12`: the RBA in assay [1] turned out to be 0.0125%. In addition, the Activity in the assay on Rattus norvegicus [2] stood at 61%; in the assay with Rattus norvegicus [4], 67%. The inhibition in vivo at 10 mg/kg in the assay on Rattus norvegicus [3] turned out to be 7%.

For `c1ccc2c(c1)SCCc1c-2n(CCc2nnnn2CCN2CCCC2)c2ccccc12`, the RBA in assay [1] is less than 0.001%. Moreover, the Activity with Rattus norvegicus [2] turned out to be 39%. The outcome in the assay with Rattus norvegicus [4] was inactive.
